We go through ten compounds from PubChem BioAssay (NCI).

Among the test systems are EKVX NSCLC; MOLT-4 leukemia; ACHN renal; SK-MEL-2 melanoma; HT29 colon; OVCAR-8 ovarian; HOP-62 NSCLC; NCI-H460 lung; NCI-H23 lung.
Common to all, as to test: NCI tumour cell line growth inhibition, 48 h

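1) Cells in 96-well plates. 2) Compound, 48 h, 5 concentrations. 3) Linear interpolation between surrounding doses. 4) Unreached endpoint = highest concentration. GI50 marks 50% less growth. The concentration for full growth arrest is given as TGI.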 Where a SMILES comes first, the peptide text is derived from it. [ ]: non-standard residue; d: D form. The star is where a group is joined. ξ: configuration not given here. X6 = FC(F)(F)c1cc(NC(=S)*)cc(C(F)(F)F)c1; ξF = NC(Cc1ccccc1)C(=O)O

In the case of `Cc1ccc2c(=O)cc(-c3ccc(F)cc3)[nH]c2n1`, the TGI in the assay with EKVX NSCLC, with MOLT-4 leukemia, in the assay on ACHN renal, in the assay on SK-MEL-2 melanoma, in the assay with HT29 colon and with OVCAR-8 ovarian was greater than 100 µM each time. Further, the TGI in the assay on HOP-62 NSCLC, in the assay on NCI-H460 lung and in the assay with NCI-H23 lung was greater than 100 µM throughout. In addition, in the assay with NCI-H460 lung, the GI50 is 33.6 µM.

With `O=C1C=C(Cl)C(=O)C(c2ccc(Cl)cc2)=C1`, the TGI with EKVX NSCLC worked out at 30.2 µM; in the assay with MOLT-4 leukemia, 22.1 µM; with ACHN renal, 30.3 µM; with SK-MEL-2 melanoma it was 44.3 µM; in the assay with HT29 colon, 62.8 µM; with OVCAR-8 ovarian, 40.7 µM. Besides, the results for the TGI in the assay on HOP-62 NSCLC, in the assay on NCI-H460 lung and in the assay on NCI-H23 lung were 44 µM, greater than 100 µM and 67.3 µM, respectively.

`O=S(=O)(NC1=NCCN1C(=S)SN1CCn2c1nsc2=S)c1ccc(OC(F)(F)F)cc1`: the GI50 in the assay on EKVX NSCLC was 5.11 µM; in the assay on MOLT-4 leukemia, 2040 nM; in the assay with ACHN renal it was 10.1 µM; in the assay on SK-MEL-2 melanoma, 6580 nM; in the assay on HT29 colon it was 11.4 µM; in the assay on OVCAR-8 ovarian, 16.3 µM. The GI50 with HOP-62 NSCLC is 16.3 µM; in the assay with NCI-H460 lung it was 13.1 µM; in the assay with NCI-H23 lung, 12.7 µM. Also, the TGI in the assay on EKVX NSCLC is 19.6 µM; with MOLT-4 leukemia, 7.39 µM; in the assay on ACHN renal, 23 µM; with SK-MEL-2 melanoma, 21 µM; with HT29 colon, greater than 100 µM; in the assay with OVCAR-8 ovarian it was 39.3 µM. The values for the TGI in the assay with HOP-62 NSCLC, in the assay with NCI-H460 lung and with NCI-H23 lung were 33 µM, 48.5 µM and 39 µM, respectively.

On to `O=C(CC1(O)C(=O)Nc2c(Cl)cc(Cl)cc21)c1ccc(Br)cc1Br` (stereo not given), for which the TGI in the assay with EKVX NSCLC worked out at 34.6 µM; in the assay on MOLT-4 leukemia it was 17.3 µM; in the assay with ACHN renal it was 27.1 µM; with SK-MEL-2 melanoma it was 28.9 µM; with HT29 colon, 40.9 µM; in the assay on OVCAR-8 ovarian, 17.6 µM. The TGI in the assay with HOP-62 NSCLC amounted to 36.5 µM; in the assay with NCI-H460 lung it was 28.9 µM; in the assay with NCI-H23 lung it was 21.2 µM.

As for `c1ccc2cc(-c3cc(-c4cc(-c5ccc6ccccc6c5)on4)no3)ccc2c1`, the TGI with EKVX NSCLC, in the assay with MOLT-4 leukemia, in the assay on ACHN renal, in the assay with SK-MEL-2 melanoma, in the assay with HT29 colon and with OVCAR-8 ovarian was greater than 100 µM each time. Besides, the TGI in the assay on HOP-62 NSCLC, with NCI-H460 lung and in the assay on NCI-H23 lung was greater than 100 µM each time.

Turning to `COc1cc(/C=N/NC(=O)c2ccc(C(F)(F)F)nc2Nc2ccc(Cl)cc2C)ccc1O`, the GI50 was 1.06 µM in the assay on EKVX NSCLC; 554 nM in the assay on MOLT-4 leukemia; 3.06 µM with ACHN renal; 2140 nM in the assay on SK-MEL-2 melanoma; 4.45 µM in the assay on HT29 colon; 1.6 µM in the assay on OVCAR-8 ovarian. Also, the GI50 with HOP-62 NSCLC was 3.78 µM; with NCI-H460 lung, 2.65 µM; in the assay with NCI-H23 lung it was 3.63 µM. The TGI with EKVX NSCLC was 12.4 µM; with MOLT-4 leukemia it was 2.75 µM; with ACHN renal, 13.7 µM; in the assay on SK-MEL-2 melanoma, 11.9 µM; in the assay on HT29 colon, 16.2 µM; in the assay with OVCAR-8 ovarian it was 13.5 µM. In addition, the TGI in the assay with HOP-62 NSCLC came to 19.7 µM; in the assay on NCI-H460 lung, 11.7 µM; with NCI-H23 lung it was 16.7 µM.

`COC(=O)[C@@H](NC(=O)CNC(=O)[C@H]1CCCN1C(=O)C(Cc1ccccc1)NC(=S)Nc1cc(C(F)(F)F)cc(C(F)(F)F)c1)C(C)C` (stereo not given in full) (X6-[ξF][dP]GV-OMe): the GI50 in the assay on EKVX NSCLC was 3.12 µM; in the assay with MOLT-4 leukemia, 2280 nM; with ACHN renal it was 3.36 µM; with SK-MEL-2 melanoma, 2860 nM; in the assay with HT29 colon, 2.44 µM; in the assay on OVCAR-8 ovarian, 3.75 µM. Moreover, the GI50 in the assay with HOP-62 NSCLC is 1.92 µM; in the assay with NCI-H460 lung, 3.39 µM; with NCI-H23 lung, 2.53 µM. Further, the TGI was 22.3 µM in the assay on EKVX NSCLC; 6.07 µM in the assay with MOLT-4 leukemia; 10.7 µM with ACHN renal; 6.86 µM in the assay with SK-MEL-2 melanoma; 5.75 µM in the assay on HT29 colon; 53.6 µM with OVCAR-8 ovarian. The TGI was found to be 3.62 µM in the assay on HOP-62 NSCLC, 12 µM with NCI-H460 lung and 8.02 µM in the assay on NCI-H23 lung.

Regarding `NC(=O)c1cccc2cn(-c3ccc([C@@H]4CCCNC4)cc3)nc12`, the GI50 in the assay on EKVX NSCLC is 19.7 µM; in the assay on MOLT-4 leukemia it was 6990 nM; in the assay on ACHN renal, 12.4 µM; with SK-MEL-2 melanoma, 19700 nM; in the assay with HT29 colon, 12.9 µM; in the assay on OVCAR-8 ovarian, 12.4 µM. Besides, the values for the GI50 with HOP-62 NSCLC, in the assay with NCI-H460 lung and in the assay with NCI-H23 lung were 8.44 µM, 4 µM and 11.3 µM, respectively. The TGI in the assay on EKVX NSCLC worked out at 64.2 µM; in the assay with MOLT-4 leukemia, 30.1 µM; with ACHN renal it was 25.9 µM; with SK-MEL-2 melanoma it was 39.3 µM; in the assay on HT29 colon, 32 µM; in the assay with OVCAR-8 ovarian it was 38.5 µM. For the same compound, the results for the TGI in the assay on HOP-62 NSCLC, in the assay on NCI-H460 lung and with NCI-H23 lung were 27.8 µM, 18.7 µM and 45 µM, respectively.

For `COC1CCC2C(NS(=O)(=O)c3ccc(C)cc3)CCCC2O1` (stereo not given) (tested in a mixture with another compound), the TGI with EKVX NSCLC was greater than 34.5 µM; in the assay on MOLT-4 leukemia, 20.9 µM; in the assay with ACHN renal, greater than 34.5 µM; with SK-MEL-2 melanoma, greater than 34.5 µM; in the assay on HT29 colon it was greater than 34.5 µM; in the assay with OVCAR-8 ovarian, greater than 34.5 µM. Further, the TGI in the assay with HOP-62 NSCLC, in the assay with NCI-H460 lung and in the assay with NCI-H23 lung was greater than 34.5 µM throughout.

Turning to `CO[C@H](C(=O)[C@@H](O)[C@@H](C)O)[C@@H]1Cc2cc3cc(O[C@H]4C[C@@H](O[C@H]5C[C@@H](O)[C@H](O)C(C)O5)[C@H](O)C(C)O4)c(C)c(O)c3c(O)c2C(=O)[C@H]1O[C@H]1C[C@@H](O[C@H]2C[C@@H](O[C@H]3C[C@](C)(O)C(=O)C(C)O3)[C@@H](O)C(C)O2)[C@H](O)C(C)O1` (stereo not given in full), the GI50 was 0.168 µM with EKVX NSCLC; 193 nM in the assay with MOLT-4 leukemia; 0.154 µM in the assay with ACHN renal; 59 nM in the assay on SK-MEL-2 melanoma; 0.0852 µM in the assay with HT29 colon; 0.0991 µM in the assay on OVCAR-8 ovarian. Besides, the figures for the GI50 in the assay on HOP-62 NSCLC, in the assay on NCI-H460 lung and with NCI-H23 lung were 0.0653 µM, 0.0323 µM and 0.0771 µM, respectively. In addition, the TGI is greater than 12.3 µM with EKVX NSCLC; greater than 19.1 µM in the assay with MOLT-4 leukemia; 1.55 µM in the assay with ACHN renal; 0.156 µM in the assay with SK-MEL-2 melanoma; 0.866 µM with HT29 colon; greater than 33.2 µM in the assay with OVCAR-8 ovarian. For the same compound, the TGI was greater than 33.2 µM with NCI-H460 lung and 1.07 µM with NCI-H23 lung.
